Data taken from PubChem BioAssay (NCI).
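Each compound was tested at five concentrations against cells in 96-well plates for 48 hours. At the GI50, growth is halved. TGI denotes the concentration required for complete inhibition of growth.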

Legend:
Assay in all cases: DTP human tumour cell line panel, 48 h
DU-145 prostate = tested on: DU-145 prostate
SK-MEL-28 melanoma = tested on: SK-MEL-28 melanoma
OVCAR-5 ovarian = tested on: OVCAR-5 ovarian
OVCAR-8 ovarian = tested on: OVCAR-8 ovarian
T-47D breast = tested on: T-47D breast
A498 renal = tested on: A498 renal
A549 NSCLC = tested on: A549 NSCLC
SW-620 colon = tested on: SW-620 colon
SK-MEL-5 melanoma = tested on: SK-MEL-5 melanoma
HT29 colon = tested on: HT29 colon
MDA-MB-231 breast = tested on: MDA-MB-231 breast
SK-MEL-2 melanoma = tested on: SK-MEL-2 melanoma
SK-OV-3 ovarian = tested on: SK-OV-3 ovarian
HL-60(TB) leukemia = tested on: HL-60(TB) leukemia
NCI-H226 lung = tested on: NCI-H226 lung
HOP-62 NSCLC = tested on: HOP-62 NSCLC
MCF7 breast = tested on: MCF7 breast
NCI-H23 lung = tested on: NCI-H23 lung
SF-295 CNS = tested on: SF-295 CNS
HCC-2998 colon = tested on: HCC-2998 colon
OVCAR-3 ovarian = tested on: OVCAR-3 ovarian
NCI-H460 lung = tested on: NCI-H460 lung
CCRF-CEM leukemia = tested on: CCRF-CEM leukemia
LOX IMVI melanoma = tested on: LOX IMVI melanoma
PC-3 prostate = tested on: PC-3 prostate
UO-31 renal = tested on: UO-31 renal
RPMI-8226 leukemia = tested on: RPMI-8226 leukemia
SNB-75 CNS = tested on: SNB-75 CNS
M14 melanoma = tested on: M14 melanoma

Structure (SMILES): O=C(NC(=S)Nc1ccccn1)c1ccccc1
- GI50 (DU-145 prostate): > 100 µM
- TGI (DU-145 prostate): > 100 µM
- GI50 (SK-MEL-28 melanoma): > 100 µM
- TGI (SK-MEL-28 melanoma): > 100 µM
- GI50 (OVCAR-5 ovarian): > 100 µM
- TGI (OVCAR-5 ovarian): > 100 µM
- GI50 (OVCAR-8 ovarian): > 100 µM
- TGI (OVCAR-8 ovarian): > 100 µM
- GI50 (T-47D breast): 5.98 µM
- TGI (T-47D breast): > 100 µM
- GI50 (A498 renal): 50.8 µM
- TGI (A498 renal): > 100 µM
- GI50 (A549 NSCLC): > 100 µM
- TGI (A549 NSCLC): > 100 µM
- GI50 (SW-620 colon): > 100 µM
- TGI (SW-620 colon): > 100 µM
- GI50 (SK-MEL-5 melanoma): > 100 µM
- TGI (SK-MEL-5 melanoma): > 100 µM
- GI50 (HT29 colon): > 100 µM
- TGI (HT29 colon): > 100 µM
- GI50 (MDA-MB-231 breast): > 100 µM
- TGI (MDA-MB-231 breast): > 100 µM
- GI50 (SK-MEL-2 melanoma): > 100 µM
- TGI (SK-MEL-2 melanoma): > 100 µM
- GI50 (SK-OV-3 ovarian): > 100 µM
- TGI (SK-OV-3 ovarian): > 100 µM
- GI50 (HL-60(TB) leukemia): > 100 µM
- TGI (HL-60(TB) leukemia): > 100 µM
- GI50 (NCI-H226 lung): > 100 µM
- TGI (NCI-H226 lung): > 100 µM
- GI50 (HOP-62 NSCLC): > 100 µM
- TGI (HOP-62 NSCLC): > 100 µM
- GI50 (MCF7 breast): 1.97 µM
- TGI (MCF7 breast): > 100 µM
- GI50 (NCI-H23 lung): > 100 µM
- TGI (NCI-H23 lung): > 100 µM
- GI50 (SF-295 CNS): > 100 µM
- TGI (SF-295 CNS): > 100 µM
- GI50 (HCC-2998 colon): > 100 µM
- TGI (HCC-2998 colon): > 100 µM
- GI50 (OVCAR-3 ovarian): 93.4 µM
- TGI (OVCAR-3 ovarian): > 100 µM
- GI50 (NCI-H460 lung): > 100 µM
- TGI (NCI-H460 lung): > 100 µM
- GI50 (CCRF-CEM leukemia): > 100 µM
- TGI (CCRF-CEM leukemia): > 100 µM
- GI50 (LOX IMVI melanoma): > 100 µM
- TGI (LOX IMVI melanoma): > 100 µM
- GI50 (PC-3 prostate): > 100 µM
- TGI (PC-3 prostate): > 100 µM
- GI50 (UO-31 renal): 39.2 µM
- TGI (UO-31 renal): > 100 µM
- GI50 (RPMI-8226 leukemia): > 100 µM
- TGI (RPMI-8226 leukemia): > 100 µM
- GI50 (SNB-75 CNS): > 100 µM
- TGI (SNB-75 CNS): > 100 µM
- GI50 (M14 melanoma): > 100 µM
- TGI (M14 melanoma): > 100 µM
